Results published in PMC5584250, “Identification of deubiquitinase targets of isothiocyanates using SILAC-assisted quantitative mass spectrometry” (Oncotarget, 2017).

How the values were obtained:
USP3 = target: T1, USP3 (Homo sapiens, UniProt Q9Y6I4); experiment: Biotin-Ub-PA/VME activity-probe labeling with immunoblot after treatment of HEK293T cells; SILAC-MS in HeLa lysate; assay type: cell-based
T1 sequence (Q9Y6I4 1-520): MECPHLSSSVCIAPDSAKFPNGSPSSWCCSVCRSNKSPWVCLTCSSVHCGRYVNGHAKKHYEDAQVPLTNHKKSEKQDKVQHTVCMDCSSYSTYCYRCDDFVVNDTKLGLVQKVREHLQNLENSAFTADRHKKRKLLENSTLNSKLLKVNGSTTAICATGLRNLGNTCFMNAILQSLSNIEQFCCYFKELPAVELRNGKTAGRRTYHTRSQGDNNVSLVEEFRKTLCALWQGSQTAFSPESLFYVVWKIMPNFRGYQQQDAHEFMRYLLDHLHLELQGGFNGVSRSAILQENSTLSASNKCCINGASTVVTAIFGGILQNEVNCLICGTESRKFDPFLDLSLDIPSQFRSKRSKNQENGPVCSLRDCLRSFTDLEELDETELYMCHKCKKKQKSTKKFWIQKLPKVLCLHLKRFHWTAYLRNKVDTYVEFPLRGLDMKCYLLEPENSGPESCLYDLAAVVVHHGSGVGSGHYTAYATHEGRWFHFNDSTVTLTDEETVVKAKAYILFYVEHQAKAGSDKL

VCPIP1 = target: T2, VCPIP1 (Homo sapiens, UniProt Q96JH7); experiment: SILAC-MS competitive activity profiling (biotin-Ub-PA/VME) in HeLa lysate, […] PEITC; assay type: cell-based
T2 sequence (Q96JH7 1-1222): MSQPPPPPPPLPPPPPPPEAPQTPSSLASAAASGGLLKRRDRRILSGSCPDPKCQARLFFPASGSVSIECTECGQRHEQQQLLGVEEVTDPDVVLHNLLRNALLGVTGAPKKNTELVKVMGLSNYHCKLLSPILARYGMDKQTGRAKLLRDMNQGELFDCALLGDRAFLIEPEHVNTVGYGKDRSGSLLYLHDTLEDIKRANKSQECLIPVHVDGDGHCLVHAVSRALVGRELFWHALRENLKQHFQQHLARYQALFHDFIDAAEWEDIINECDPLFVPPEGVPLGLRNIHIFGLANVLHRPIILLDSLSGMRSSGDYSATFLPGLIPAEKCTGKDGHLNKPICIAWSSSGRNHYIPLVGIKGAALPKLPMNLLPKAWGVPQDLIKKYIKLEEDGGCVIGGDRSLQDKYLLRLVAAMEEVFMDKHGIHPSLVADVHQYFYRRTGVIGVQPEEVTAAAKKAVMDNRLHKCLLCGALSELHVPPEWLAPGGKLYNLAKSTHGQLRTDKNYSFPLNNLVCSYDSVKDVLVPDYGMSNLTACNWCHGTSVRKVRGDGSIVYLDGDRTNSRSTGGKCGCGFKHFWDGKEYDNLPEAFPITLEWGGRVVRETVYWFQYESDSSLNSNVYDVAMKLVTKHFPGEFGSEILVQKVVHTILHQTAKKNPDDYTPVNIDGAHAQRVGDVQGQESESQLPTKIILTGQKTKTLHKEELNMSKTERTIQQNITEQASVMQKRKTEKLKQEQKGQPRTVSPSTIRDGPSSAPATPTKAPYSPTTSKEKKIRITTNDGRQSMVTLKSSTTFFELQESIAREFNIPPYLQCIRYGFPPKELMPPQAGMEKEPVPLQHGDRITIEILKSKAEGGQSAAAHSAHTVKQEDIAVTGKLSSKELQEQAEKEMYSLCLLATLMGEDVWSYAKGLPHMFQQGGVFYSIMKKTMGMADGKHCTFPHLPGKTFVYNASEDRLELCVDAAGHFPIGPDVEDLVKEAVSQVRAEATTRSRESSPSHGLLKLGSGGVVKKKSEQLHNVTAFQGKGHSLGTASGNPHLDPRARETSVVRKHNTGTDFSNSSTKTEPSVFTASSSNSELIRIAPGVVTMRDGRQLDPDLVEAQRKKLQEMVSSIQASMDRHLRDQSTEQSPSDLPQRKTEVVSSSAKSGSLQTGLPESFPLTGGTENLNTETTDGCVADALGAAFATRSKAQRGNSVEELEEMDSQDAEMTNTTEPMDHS

UCH37 = target: T3, UCH37 (Homo sapiens, UniProt Q9Y5K5); experiment: d5/d0-NEM differential cysteine labeling LC-MS/MS on recombinant UCH37/ADRM1; also Ub-Rho110MP hydrolysis inhibition and activity-probe competition; assay type: binding
T3 construct: gene UCHL5; Human UCH37 (isoform 1) with an N-terminal 6x histidine tag; with ADRM1 (RPN13)

USP1 = target: T4, USP1 (Homo sapiens, UniProt O94782); experiment: K63-linked di-ubiquitin gel-based hydrolysis assay with purified USP1/UAF1; also probe labeling in cells and SILAC-MS; assay type: biochemical
T4 construct: recombinant human His6-USP1/UAF1 complex; with UAF1
Text: K63-linked di-ubiquitin gel-based hydrolysis assay with purified USP1/UAF1; also probe labeling in cells and SILAC-MS on USP1 | hydrolysis of di-Ub by purified USP1 in complex with its activator UAF1 ... Dose dependent inhibition was observed

USP16 = USP16 (Homo sapiens, UniProt Q9Y5T5); experiment: SILAC-MS competitive activity profiling (biotin-Ub-PA/VME) in HeLa lysate, […] PEITC; assay type: cell-based
USP16, sequence (Q9Y5T5 whole entry): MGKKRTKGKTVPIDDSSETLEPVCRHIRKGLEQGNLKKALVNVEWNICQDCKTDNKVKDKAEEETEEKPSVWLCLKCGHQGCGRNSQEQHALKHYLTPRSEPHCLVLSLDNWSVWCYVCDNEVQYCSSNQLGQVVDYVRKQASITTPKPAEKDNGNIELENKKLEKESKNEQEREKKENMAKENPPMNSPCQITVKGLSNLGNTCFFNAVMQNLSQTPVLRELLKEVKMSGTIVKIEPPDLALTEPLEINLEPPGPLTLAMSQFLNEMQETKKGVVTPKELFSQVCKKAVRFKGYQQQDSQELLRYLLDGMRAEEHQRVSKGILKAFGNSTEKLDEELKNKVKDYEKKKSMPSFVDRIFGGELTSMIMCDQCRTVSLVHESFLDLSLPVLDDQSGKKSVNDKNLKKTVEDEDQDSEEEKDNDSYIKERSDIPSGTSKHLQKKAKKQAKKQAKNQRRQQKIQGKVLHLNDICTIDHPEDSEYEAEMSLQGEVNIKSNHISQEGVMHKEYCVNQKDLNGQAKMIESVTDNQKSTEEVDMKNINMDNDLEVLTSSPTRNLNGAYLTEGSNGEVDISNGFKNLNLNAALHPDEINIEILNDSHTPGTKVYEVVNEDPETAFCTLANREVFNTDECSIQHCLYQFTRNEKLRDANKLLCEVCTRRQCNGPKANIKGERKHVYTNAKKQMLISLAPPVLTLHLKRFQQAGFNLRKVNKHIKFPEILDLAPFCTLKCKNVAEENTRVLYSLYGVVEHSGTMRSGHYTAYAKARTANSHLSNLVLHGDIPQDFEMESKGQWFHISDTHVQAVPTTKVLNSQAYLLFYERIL

T3 sequence (Q16186 2-407): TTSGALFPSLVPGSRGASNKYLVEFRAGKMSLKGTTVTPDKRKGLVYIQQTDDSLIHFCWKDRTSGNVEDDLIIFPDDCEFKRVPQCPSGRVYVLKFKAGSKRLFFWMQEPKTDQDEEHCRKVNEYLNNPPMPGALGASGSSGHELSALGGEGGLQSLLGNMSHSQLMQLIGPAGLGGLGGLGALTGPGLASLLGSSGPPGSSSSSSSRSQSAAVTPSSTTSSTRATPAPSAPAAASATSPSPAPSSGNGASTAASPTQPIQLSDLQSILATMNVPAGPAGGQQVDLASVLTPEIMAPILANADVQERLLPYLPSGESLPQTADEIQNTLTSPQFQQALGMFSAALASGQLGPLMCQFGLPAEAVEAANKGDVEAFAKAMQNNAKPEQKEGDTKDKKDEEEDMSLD
T3 sequence (Q9Y5K5 whole entry, canonical isoform): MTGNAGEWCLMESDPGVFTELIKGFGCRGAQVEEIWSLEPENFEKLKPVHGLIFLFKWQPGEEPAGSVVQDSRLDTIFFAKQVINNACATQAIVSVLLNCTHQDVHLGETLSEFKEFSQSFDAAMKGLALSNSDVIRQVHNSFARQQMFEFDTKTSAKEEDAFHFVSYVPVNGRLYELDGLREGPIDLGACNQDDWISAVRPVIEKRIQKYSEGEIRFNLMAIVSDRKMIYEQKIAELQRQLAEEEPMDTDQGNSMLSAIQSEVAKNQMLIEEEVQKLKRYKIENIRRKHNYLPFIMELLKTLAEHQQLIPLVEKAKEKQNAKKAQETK
T4 sequence (O94782 whole entry): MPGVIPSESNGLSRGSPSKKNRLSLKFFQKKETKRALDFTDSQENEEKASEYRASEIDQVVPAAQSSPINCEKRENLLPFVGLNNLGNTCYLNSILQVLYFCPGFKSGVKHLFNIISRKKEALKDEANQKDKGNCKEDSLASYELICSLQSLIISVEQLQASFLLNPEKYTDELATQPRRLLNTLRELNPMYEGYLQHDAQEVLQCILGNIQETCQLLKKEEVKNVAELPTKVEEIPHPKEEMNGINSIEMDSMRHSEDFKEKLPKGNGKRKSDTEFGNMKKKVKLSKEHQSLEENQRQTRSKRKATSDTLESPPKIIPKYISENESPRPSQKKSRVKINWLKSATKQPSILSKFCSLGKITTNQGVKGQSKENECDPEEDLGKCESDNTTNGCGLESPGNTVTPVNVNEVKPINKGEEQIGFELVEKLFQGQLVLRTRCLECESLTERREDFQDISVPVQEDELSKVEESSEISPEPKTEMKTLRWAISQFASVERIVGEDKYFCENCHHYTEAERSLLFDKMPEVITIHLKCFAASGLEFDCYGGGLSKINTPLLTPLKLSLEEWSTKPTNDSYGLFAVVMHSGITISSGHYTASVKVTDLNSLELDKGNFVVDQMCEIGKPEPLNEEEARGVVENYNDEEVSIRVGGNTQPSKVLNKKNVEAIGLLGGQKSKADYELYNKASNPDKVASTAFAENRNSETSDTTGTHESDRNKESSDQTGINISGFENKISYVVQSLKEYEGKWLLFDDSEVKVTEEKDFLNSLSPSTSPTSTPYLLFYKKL
T4 sequence (Q8TAF3 whole entry partner): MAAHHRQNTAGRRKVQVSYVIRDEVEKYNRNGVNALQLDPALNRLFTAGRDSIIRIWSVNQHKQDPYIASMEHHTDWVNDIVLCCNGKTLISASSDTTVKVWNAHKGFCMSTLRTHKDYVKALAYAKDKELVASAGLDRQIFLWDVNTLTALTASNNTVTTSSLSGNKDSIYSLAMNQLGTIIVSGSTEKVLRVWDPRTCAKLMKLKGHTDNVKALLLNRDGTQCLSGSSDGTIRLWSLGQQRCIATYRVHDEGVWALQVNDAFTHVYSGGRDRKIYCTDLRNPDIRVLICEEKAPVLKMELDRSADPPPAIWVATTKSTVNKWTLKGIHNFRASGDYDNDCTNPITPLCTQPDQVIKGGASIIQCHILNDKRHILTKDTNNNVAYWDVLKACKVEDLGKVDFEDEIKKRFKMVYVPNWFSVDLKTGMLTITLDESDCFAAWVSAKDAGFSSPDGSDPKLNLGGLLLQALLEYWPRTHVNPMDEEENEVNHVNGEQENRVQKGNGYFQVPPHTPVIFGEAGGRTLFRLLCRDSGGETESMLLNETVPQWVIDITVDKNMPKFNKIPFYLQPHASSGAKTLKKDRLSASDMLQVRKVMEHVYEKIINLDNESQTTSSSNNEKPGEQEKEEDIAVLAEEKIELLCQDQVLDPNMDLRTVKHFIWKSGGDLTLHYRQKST

S=C=NCCc1ccccc1 [PEITC]
Biotin-Ub-PA/VME activity-probe labeling with immunoblot after treatment of HEK2 (USP3): inhibition of USP3 by PEITC in living cells was confirmed by observing the molecular shift upon probe labeling
SILAC-MS competitive activity profiling (biotin-Ub-PA/VME) in HeLa lysate, 75 μM (VCPIP1): the inhibition of VCPIP1 by PEITC is the first report of inhibition of an OTU domain DUB
d5/d0-NEM differential cysteine labeling LC-MS/MS on recombinant UCH37/ADRM1; al (UCH37): increase in d0-NEM labeling at Cys88, indicating that the active-site cysteine is the site of PEITC modification
K63-linked di-ubiquitin gel-based hydrolysis assay with purified USP1/UAF1; also (USP1): hydrolysis of di-Ub by purified USP1 in complex with its activator UAF1 ... Dose dependent inhibition was observed
SILAC-MS competitive activity profiling (biotin-Ub-PA/VME) in HeLa lysate, 75 μM (USP16): USP1, USP3, USP16, USP48 and VCPIP1 were only identified in the absence of PEITC
